{"source": "patent US10718006B2", "about": "“Methods for detecting beta-lactamase-producing bacteria” (priority 2015, dated 2020)", "format_in_all_cases": "cell-based", "key": {"C. freundii strain": {"tested_on": "C. freundii strain", "experiment": "Electrochemical assay with substrate HMRZ-86, liquid cultures", "details": "C. freundii 11745, Inducible cephalosporinase; liquid culture, 30 min with HMRZ-86", "experimental": "(§1) Each cryopreserved strain is cultured in 10 mL of LB medium at 37° C. until the stationary phase is obtained.\n(§2) A volume of 50 μL of culture liquid is incubated in the presence of 50 μL of a solution of HMRZ-86 at 0.5 mM in PBS at 37° C. with stirring for 30 min. 40 μL of the reaction mixture is taken and transferred onto the surface of a screen-printed carbon sensor (Dropsens, DRP-110) connected beforehand to a STAT 8000P portable potentiostat (Dropsens) with power supply from the computer's USB port and controlled by the DropView 8400 software. Linear voltammetry measurements are carried out by linear potential scanning from −0.1 V to 1.2 V at a rate of 50 mV·s^−1. The peak current appearing in the potential range +0.2 to +0.55 V vs. Ag/AgCl, associated with hydrolysis of the beta-lactam ring of HMRZ-86, is selected as the analytical response. If the intensity of the peak (i) has a value above 500 nA, the sample contains a strain capable of degrading the C3Gs.\n(§3) The electrochemical method of the invention was applied to analysis of a panel of 40 strains producing various β-lactamases and was compared with the R-Lacta™ Test (Biorad), the principle of which is based on qualitative colorimetric detection of the C3G-resistant strains. The results presented in Table 7 were obtained after 30 min of incubation of the bacteria with the substrate HMRZ-86 for both methods. Based on the interpretation of the results proposed by the supplier, the R-Lacta™ Test allows identification of the C3G-resistant strains with a level of agreement of 68%, whereas a level of agreement of 95% was obtained with the electrochemical method of the invention. In contrast to colorimetry, amperometry offers the advantage of measuring a numerical value of current which, on the one hand, avoids any subjective interpretation of the result (intermediate colour), and on the other hand allows traceability of the result.\n(§4) Table 7: Comparison of the results obtained with the electrochemical method of the invention for liquid cultures with those obtained with the R-Lacta™ Test implemented according to the supplier's recommendations with isolated colonies. In both cases, the readings were taken after incubation with the substrate HMRZ-86 for 30 min."}, "E. aerogenes strains [1]": {"tested_on": "E. aerogenes strains", "experiment": "Electrochemical assay with substrate HMRZ-86, liquid cultures", "details": "liquid culture, 30 min with HMRZ-86", "experimental": "as §1, §2, §3, §4"}, "E. cloacae strains [2]": {"tested_on": "E. cloacae strains", "experiment": "Electrochemical assay with substrate HMRZ-86, liquid cultures", "details": "liquid culture, 30 min with HMRZ-86", "experimental": "as §1, §2, §3, §4"}, "[3]": {"tested_on": "E. coli strains producing various β-lactamases", "experiment": "Electrochemical assay with substrate HMRZ-86, liquid cultures", "details": "liquid culture, 30 min with HMRZ-86", "experimental": "as §1, §2, §3, §4"}, "K. oxytoca strain [4]": {"tested_on": "K. oxytoca strain", "experiment": "Electrochemical assay with substrate HMRZ-86, liquid cultures", "details": "K. oxytoca 11779, Low-level penicillinase; liquid culture, 30 min with HMRZ-86", "experimental": "as §1, §2, §3, §4"}, "K. pneumoniae strains": {"tested_on": "K. pneumoniae strains", "experiment": "Electrochemical assay with substrate HMRZ-86, liquid cultures", "details": "liquid culture, 30 min with HMRZ-86", "experimental": "as §1, §2, §3, §4"}, "P. aeruginosa strains [5]": {"tested_on": "P. aeruginosa strains", "experiment": "Electrochemical assay with substrate HMRZ-86, liquid cultures", "details": "liquid culture, 30 min with HMRZ-86", "experimental": "as §1, §2, §3, §4"}, "P. mirabilis strains": {"tested_on": "P. mirabilis strains", "experiment": "Electrochemical assay with substrate HMRZ-86, liquid cultures", "details": "liquid culture, 30 min with HMRZ-86", "experimental": "as §1, §2, §3, §4"}, "S. marcescens strain": {"tested_on": "S. marcescens strain", "experiment": "Electrochemical assay with substrate HMRZ-86, liquid cultures", "details": "S. marcescens 11787, Hyperproduced cephalosporinase; liquid culture, 30 min with HMRZ-86", "experimental": "as §1, §2, §3, §4"}, "E. aerogenes strains [6]": {"tested_on": "E. aerogenes strains", "experiment": "β-Lacta Test (colorimetric, HMRZ-86), isolated colonies", "design": "key: Yellow or orange colour: negative result (absence of C3G-resistant strains); Orange: Yellow or orange colour: negative result (absence of C3G-resistant strains); Red colour: positive result (presence of C3G-resistant strains)", "experimental": "as §3, §4"}, "E. cloacae strains [7]": {"tested_on": "E. cloacae strains", "experiment": "β-Lacta Test (colorimetric, HMRZ-86), isolated colonies", "design": "key: Yellow or orange colour: negative result (absence of C3G-resistant strains); Orange: Yellow or orange colour: negative result (absence of C3G-resistant strains); Red colour: positive result (presence of C3G-resistant strains)", "details": "30 min with HMRZ-86", "experimental": "as §3, §4"}, "K. oxytoca strain [8]": {"tested_on": "K. oxytoca strain", "experiment": "β-Lacta Test (colorimetric, HMRZ-86), isolated colonies", "design": "key: Yellow or orange colour: negative result (absence of C3G-resistant strains); Orange: Yellow or orange colour: negative result (absence of C3G-resistant strains); Red colour: positive result (presence of C3G-resistant strains)", "details": "K. oxytoca 11779, Low-level penicillinase, 30 min with HMRZ-86", "experimental": "as §3, §4"}, "P. aeruginosa strains [9]": {"tested_on": "P. aeruginosa strains", "experiment": "β-Lacta Test (colorimetric, HMRZ-86), isolated colonies", "design": "key: Yellow or orange colour: negative result (absence of C3G-resistant strains); Orange: Yellow or orange colour: negative result (absence of C3G-resistant strains); Red colour: positive result (presence of C3G-resistant strains)", "details": "30 min with HMRZ-86", "experimental": "as §3, §4"}, "[10]": {"details": "E. cloacae 11784, Hyperproduced cephalosporinase"}, "[11]": {"details": "E. cloacae 11790, Hyperproduced cephalosporinase"}, "[12]": {"details": "E. cloacae 11794, Hyperproduced cephalosporinase"}, "[13]": {"details": "P. aeruginosa 11774, Hyperproduced cephalosporinase"}, "[14]": {"details": "P. aeruginosa 11778, Hyperproduced cephalosporinase"}, "[15]": {"details": "P. aeruginosa 11782, Hyperproduced cephalosporinase"}}, "data": [{"compound": "CC(C)(ON=C(C(=O)N[C@@H]1C(=O)N2C(C(=O)O)=C(C=Cc3ccc([N+](=O)[O-])cc3[N+](=O)[O-])CS[C@H]12)c1csc(N)n1)C(=O)O.O=C(O)C(F)(F)F", "note": "[HMRZ-86, (6R,7R)-trifluoroacetate 7-[[2-(2-amino-4-thiazolyl)-2-[(1-carboxy-1-methylethoxy)imino]acetyl]amino]-1-aza-3-[2-(2,4-dinitrophenyl)ethenyl]-8-oxo-5-thiabicyclo[4.2.0]oct-2-ene-2-carboxylic acid]", "values": [{"measurement": "Electrochemical assay Intensity", "setting": "C. freundii strain", "result": 369, "unit": "nA"}, {"measurement": "Electrochemical assay Intensity", "setting": "E. aerogenes strains [1]; E. aerogenes 11772, Inducible cephalosporinase", "result": 362, "unit": "nA"}, {"measurement": "Electrochemical assay Intensity", "setting": "E. aerogenes strains [1]; E. aerogenes 11775, Hyperproduced cephalosporinase", "result": 501, "unit": "nA"}, {"measurement": "Electrochemical assay Intensity", "setting": "E. aerogenes strains [1]; E. aerogenes 11796, ESBL TEM 24", "result": 1249, "unit": "nA"}, {"measurement": "Electrochemical assay Intensity", "setting": "E. cloacae strains [2]; [10]", "result": 569, "unit": "nA"}, {"measurement": "Electrochemical assay Intensity", "setting": "E. cloacae strains [2]; [11]", "result": 686, "unit": "nA"}, {"measurement": "Electrochemical assay Intensity", "setting": "E. cloacae strains [2]; [12]", "result": 842, "unit": "nA"}, {"measurement": "Electrochemical assay Intensity", "setting": "[3]; E. coli 11746, Hyperproduced penicillinase", "result": 380, "unit": "nA"}, {"measurement": "Electrochemical assay Intensity", "setting": "[3]; E. coli 11748, Inducible cephalosporinase", "result": 424, "unit": "nA"}, {"measurement": "Electrochemical assay Intensity", "setting": "[3]; E. coli 11755, Carbapenemase OXA-48 - CTX-M", "result": 3509, "unit": "nA"}, {"measurement": "Electrochemical assay Intensity", "setting": "[3]; E. coli 11757, Carbapenemase OXA-48", "result": 625, "unit": "nA"}, {"measurement": "Electrochemical assay Intensity", "setting": "[3]; E. coli 11765, Hyperproduced penicillinase", "result": 323, "unit": "nA"}, {"measurement": "Electrochemical assay Intensity", "setting": "[3]; E. coli 11766, Inducible cephalosporinase", "result": 408, "unit": "nA"}, {"measurement": "Electrochemical assay Intensity", "setting": "[3]; E. coli 11776, Inducible cephalosporinase", "result": 446, "unit": "nA"}, {"measurement": "Electrochemical assay Intensity", "setting": "[3]; E. coli 11780, Hyperproduced penicillinase", "result": 425, "unit": "nA"}, {"measurement": "Electrochemical assay Intensity", "setting": "[3]; E. coli 11781, Low-level penicillinase", "result": 377, "unit": "nA"}, {"measurement": "Electrochemical assay Intensity", "setting": "[3]; E. coli 11791, Hyperproduced cephalosporinase", "result": 816, "unit": "nA"}, {"measurement": "Electrochemical assay Intensity", "setting": "[3]; E. coli 11810, ESBL CTX-M-1", "result": 2544, "unit": "nA"}, {"measurement": "Electrochemical assay Intensity", "setting": "[3]; E. coli 11817, ESBL CTX-M-2", "result": 1472, "unit": "nA"}, {"measurement": "Electrochemical assay Intensity", "setting": "[3]; E. coli 11818, ESBL CTX-M-1", "result": 3583, "unit": "nA"}, {"measurement": "Electrochemical assay Intensity", "setting": "[3]; E. coli 11820, ESBL SHV-12", "result": 1249, "unit": "nA"}, {"measurement": "Electrochemical assay Intensity", "setting": "[3]; E. coli 11828, ESBL CTX-M-27", "result": 2640, "unit": "nA"}, {"measurement": "Electrochemical assay Intensity", "setting": "[3]; E. coli 11833, ESBL CTX-M-9", "result": 2455, "unit": "nA"}, {"measurement": "Electrochemical assay Intensity", "setting": "[3]; E. coli 11834, ESBL TEM-12", "result": 418, "unit": "nA"}, {"measurement": "Electrochemical assay Intensity", "setting": "[3]; E. coli 11863, ESBL CTX-M-14", "result": 2544, "unit": "nA"}, {"measurement": "Electrochemical assay Intensity", "setting": "[3]; E. coli K12, Beta-lactamase negative", "result": 302, "unit": "nA"}, {"measurement": "Electrochemical assay Intensity", "setting": "K. oxytoca strain [4]", "result": 412, "unit": "nA"}, {"measurement": "Electrochemical assay Intensity", "setting": "K. pneumoniae strains; K. pneumoniae 11754, Carbapenemase OXA-48 - CTX-M", "result": 3520, "unit": "nA"}, {"measurement": "Electrochemical assay Intensity", "setting": "K. pneumoniae strains; K. pneumoniae 11762, Carbapenemase OXA-48", "result": 476, "unit": "nA"}, {"measurement": "Electrochemical assay Intensity", "setting": "K. pneumoniae strains; K. pneumoniae 11770, Low-level penicillinase", "result": 365, "unit": "nA"}, {"measurement": "Electrochemical assay Intensity", "setting": "K. pneumoniae strains; K. pneumoniae 11812, ESBL CTX-M-15", "result": 3494, "unit": "nA"}, {"measurement": "Electrochemical assay Intensity", "setting": "K. pneumoniae strains; K. pneumoniae 11839, Carbapenemase KPC-2", "result": 1567, "unit": "nA"}, {"measurement": "Electrochemical assay Intensity", "setting": "K. pneumoniae strains; K. pneumoniae 11842, Carbapenemase NDM-1", "result": 1257, "unit": "nA"}, {"measurement": "Electrochemical assay Intensity", "setting": "P. aeruginosa strains [5]; [13]", "result": 2160, "unit": "nA"}, {"measurement": "Electrochemical assay Intensity", "setting": "P. aeruginosa strains [5]; [14]", "result": 2278, "unit": "nA"}, {"measurement": "Electrochemical assay Intensity", "setting": "P. aeruginosa strains [5]; [15]", "result": 1778, "unit": "nA"}, {"measurement": "Electrochemical assay Intensity", "setting": "P. mirabilis strains; P. mirabilis 11747, Beta-lactamase negative", "result": 322, "unit": "nA"}, {"measurement": "Electrochemical assay Intensity", "setting": "P. mirabilis strains; P. mirabilis 11768, Low-level penicillinase", "result": 233, "unit": "nA"}, {"measurement": "Electrochemical assay Intensity", "setting": "S. marcescens strain", "result": 3922, "unit": "nA"}, {"measurement": "β-Lacta ™ Test Colour", "setting": "E. aerogenes strains [6]; E. aerogenes 11772, Inducible cephalosporinase, 30 min with HMRZ-86", "result": "Yellow"}, {"measurement": "β-Lacta ™ Test Colour", "setting": "E. aerogenes strains [6]; E. aerogenes 11775, Hyperproduced cephalosporinase, 30 min with HMRZ-86", "result": "Yellow"}, {"measurement": "β-Lacta ™ Test Colour", "setting": "E. aerogenes strains [6]; E. aerogenes 11796, ESBL TEM 24, 30 min with HMRZ-86", "result": "Orange"}, {"measurement": "β-Lacta ™ Test Colour", "setting": "E. cloacae strains [7]; [10]", "result": "Orange"}, {"measurement": "β-Lacta ™ Test Colour", "setting": "E. cloacae strains [7]; [11]", "result": "Orange"}, {"measurement": "β-Lacta ™ Test Colour", "setting": "E. cloacae strains [7]; [12]", "result": "Orange"}, {"measurement": "β-Lacta ™ Test Colour", "setting": "K. oxytoca strain [8]", "result": "Yellow"}, {"measurement": "β-Lacta ™ Test Colour", "setting": "P. aeruginosa strains [9]; [13]", "result": "Orange"}, {"measurement": "β-Lacta ™ Test Colour", "setting": "P. aeruginosa strains [9]; [14]", "result": "Yellow"}, {"measurement": "β-Lacta ™ Test Colour", "setting": "P. aeruginosa strains [9]; [15]", "result": "Yellow"}]}]}
